From article PMC11342128, “Gold(I) and gold(III) carbene complexes from the marine betaine norzooanemonin: inhibition of thioredoxin reductase, antiproliferative and antimicrobial activity” (RSC Medicinal Chemistry, 2024)
Several values for one entry are separate records, joined by “and”; a condition that tells them apart may be missing. Equal entries are not always repeated.

What was measured:
[1] = system: methicillin-resistant Staphylococcus aureus DSM 11822; experiment: Antibacterial activity (MIC, curve fitting); type: cell-based
Description: (§1) The antibacterial activity of all gold complexes was assessed against six pathogenic bacterial strains, including two Gram-positive species, i.e. Enterococcus faecium and methicillin-resistant Staphylococcus aureus (MRSA), and four Gram-negative species, i.e. Acinetobacter baumannii, Escherichia coli, Klebsiella pneumoniae, and Pseudomonas aeruginosa. Minimum inhibitory concentrations (MICs) were determined using a curve-fitting technique.
(§2) S2.1. Antibacterial Studies
(§3) Bacterial cultures were prepared by overnight aerobic incubation at 37 °C. Gram-negative strains were cultivated in Müller Hinton broth supplemented with 1% glucose at pH 7.2, while Gram-positive strains were grown in Trypticase soy yeast extract medium (TSY) with a composition of 30 g/l trypticase soy broth, 3 g/l yeast extract, and pH 7.2. The cultures were adjusted to an OD600 of 0.001, resulting in a final starting OD600 of 0.0005 for the subsequent tests. For testing, 25 μL of the prepared culture was combined with 25 μL of serially diluted test compounds in 384 well plates, following established protocols for different strains. Screening was performed at compound concentrations of 0.5, 5, and 50 µM, and for selected compounds, growth inhibition curves were recorded using DMSO stock solutions […]
(§4) Positive control compounds, namely linezolid (for MRSA strains), ciprofloxacin (for E. faecium and E. coli), and amikacin (for P. aeruginosa), were included. The maximum DMSO concentration in the assay […]
(§5) After an 18-hour incubation at 37 °C under moist conditions, the optical density at 600 nm was measured using a Fusion Universal Microplate Analyser (Perkin–Elmer, Waltham, USA). The minimum inhibitory concentration (MIC) values, representing the […]
(§6) fitting with Sigma Plot. The bacterial strains used included Gram-negative strains: Escherichia coli (DSM 1116), A. baumannii (DSM30007), K. pneumoniae (DSM111678), and Pseudomonas aeruginosa PA7 (DSM 24068); and Gram-positive strains: E. faecium (DSM20477) and Staphylococcus aureus MRSA

[2] = system: Klebsiella pneumoniae DSM111678; experiment: Antibacterial activity (MIC, curve fitting); type: cell-based; details: for MIC, K.p.: Table 2, Klebsiella pneumoniae DSM111678, 18 h, 37 °C; for MIC, K. pneumoniae: Table S12, ± standard error of the mean
Description: as §1, §2, §3, §4, §5, §6

[3] = system: Escherichia coli DSM 1116; experiment: Antibacterial activity (MIC, curve fitting); type: cell-based; details: for MIC, E.c.: Table 2, Escherichia coli DSM 1116, 18 h, 37 °C; for MIC, E. coli: Table S12, ± standard error of the mean
Description: as §1, §2, §3, §4, §5, §6

[4] = system: Pseudomonas aeruginosa DSM 24068; experiment: Antibacterial activity (MIC, curve fitting); type: cell-based; details: for MIC, P.a.: Table 2, Pseudomonas aeruginosa DSM 24068, 18 h, 37 °C; for MIC, P. aeruginosa: Table S12, ± standard error of the mean
Description: as §1, §2, §3, §4, §5, §6

[5] = system: Acinetobacter baumannii DSM30007; experiment: Antibacterial activity (MIC, curve fitting); type: cell-based; details: for MIC, A.b.: Table 2, Acinetobacter baumannii DSM30007, 18 h, 37 °C; for MIC, A. baumannii: Table S12, ± standard error of the mean
Description: as §1, §2, §3, §4, §5, §6

[6] = system: Enterococcus faecium DSM20477; experiment: Antibacterial activity (MIC, curve fitting); type: cell-based; details: for MIC, E.f.: Table 2, Enterococcus faecium DSM20477, 18 h, 37 °C; for MIC, E. faecium: Table S12, ± standard error of the mean
Description: as §1, §2, §3, §4, §5, §6

[7] = biological target: TrxR from E. coli (Escherichia coli, UniProt P0A9P4); experiment: Inhibition of isolated bacterial TrxR, DTNB-based assay; type: biochemical; parameters: purchased Sigma-Aldrich; details: for TrxR activity, % of control: compounds at 0.5 µM, n = 2, Table S13; for IC50: isolated E. coli TrxR, DTNB assay, ± standard deviation, n = 3
Chain of TrxR from E. coli (P0A9P4 2-321): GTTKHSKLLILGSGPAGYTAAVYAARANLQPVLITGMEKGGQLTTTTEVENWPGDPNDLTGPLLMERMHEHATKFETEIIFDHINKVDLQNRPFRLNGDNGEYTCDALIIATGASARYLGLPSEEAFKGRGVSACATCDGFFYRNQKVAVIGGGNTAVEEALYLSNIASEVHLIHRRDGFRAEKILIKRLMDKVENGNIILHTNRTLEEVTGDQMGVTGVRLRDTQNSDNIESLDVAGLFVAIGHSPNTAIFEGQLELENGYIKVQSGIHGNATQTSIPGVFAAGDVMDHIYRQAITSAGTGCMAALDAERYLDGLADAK
Description: The inhibition of isolated TrxR from E. coli was determined for the selected monocarbene gold(I/III) complexes 2a–c and 4b–c using a DTNB-based assay (Table 3). […] The inhibition of bacterial TrxR for compound 2a was investigated in our previous report (Table 3).
S2.3. Inhibition of bacterial TrxR from E. coli
The TrxR (E. coli) inhibition assay was performed according to previously published procedures.[8] The assay is partly based on the procedure developed by Lu et al[9] and makes use of the reduction of DTNB (5,5′-dithiobis-(2-nitrobenzoic acid)). Solutions of E. coli TrxR (10.1 U/mL) and E. coli thioredoxin (Trx) (312 μg/mL) (both purchased from Sigma-Aldrich) were prepared in distilled water. Stock solutions of the test compounds (2 mM) were prepared in DMSO and serially diluted with TE buffer (Tris-HCl 50 mM, EDTA 1 mM, pH 7.5). 20 μL of these solutions or TE buffer without the test compounds (positive control) were mixed with the TrxR solution (10 μL), the Trx solution (10 μL) and 100 µl of NADPH (200 μM) in TE buffer in a well on a 96-well plate. As a blank control, 200 μM NADPH in TE buffer (100 μL) mixed with a DMSO / buffer mixture (40 μL) was used (final concentrations of DMSO: 0.5% v/v). The plate was incubated for 75 min at 25°C with moderate shaking. After incubation, 100 μL of a reaction mixture (TE buffer containing 200 μM NADPH and 5 mM DTNB) was added to each well to initiate the reaction. After thorough mixing, the formation of 5-TNB was monitored by a microplate reader at 405 nm in 35 s intervals (10 measurements). The values were corrected by subtraction of the blank solution absorption values. The increase in concentration of 5-TNB followed a linear trend (r2≥ 0.990) and the enzymatic activities were calculated as the gradients (increase in absorbance per second) thereof. […]
for each test compound, where the highest test compound concentration was used and the enzyme solution was replaced by TE buffer. The inhibition is presented as the mean IC50 values and standard deviations obtained in three independent experiments.
Table S13. Activity of TrxR from E. coli in presence of compounds at 0.5 µM (n = 2, n.d.= not

[8] = system: A549 lung carcinoma cells; experiment: Antiproliferative activity, crystal violet assay; type: cell-based; details: 72 h exposure, SD in parentheses, n = 3
Description: (§7) The antiproliferative potential of the gold–NHC complexes was determined in A549 lung carcinoma cells, MDA-MB-231 breast cancer cells, MCF-7 breast adenocarcinoma cells, and HT-29 colon carcinoma cells (Table 1). Vero E6 African green monkey kidney cells served as a reference cell line to check for possible tumour selectivity. Auranofin (AF) was used as an established reference drug.[15,17] […]
(§8) S2.2. Cytotoxicity and Anticancer Studies
(§9) Cell culture and cytotoxicity
(§10) Cell lines were sourced from DSMZ (German Collection of Microorganisms and Cell Cultures GmbH) and maintained through standard procedures in Dulbecco's Modified Eagle Medium (DMEM) supplemented with 10% fetal calf serum and 50 mg/L gentamycin. Antiproliferative effects were assessed using a well-established assay protocol. In brief, 100 μL volumes of A549 cells (13,243 cells per mL), HT-29 cells (14,657 cells per mL), MDA-MB-231 cells (6,613 cells per mL), or MCF-7 cells (6,917 cells per mL) were transferred into the wells of 96-well plates and incubated at 37°C/5% CO2 for 72 […]
(§11) Freshly prepared stock solutions of the compounds in DMSO were diluted with the respective cell culture medium to achieve graded concentrations (final concentration of DMSO: 0.1% v/v). After 72 hours (A549, HT-29) or 96 hours (MCF-7, MDA-MB-231) of exposure, the cell biomass was assessed through crystal violet staining, and the IC50 value was determined as the concentration causing 50% inhibition of cell proliferation compared to an untreated control. Results were calculated as the mean values of three independent experiments.

[9] = system: MCF-7 breast adenocarcinoma cells; experiment: Antiproliferative activity, crystal violet assay; type: cell-based; details: 96 h exposure, SD in parentheses, n = 3
Description: as §7, §8, §9, §10, §11

[10] = system: MDA-MB-231 breast cancer cells; experiment: Antiproliferative activity, crystal violet assay; type: cell-based; details: 96 h exposure, SD in parentheses, n = 3
Description: as §7, §8, §9, §10, §11

[11] = system: HT-29 colon carcinoma cells; experiment: Antiproliferative activity, crystal violet assay; type: cell-based; details: 72 h exposure, SD in parentheses, n = 3
Description: as §7, §8, §9, §10, §11

[12] = system: Vero E6 African green monkey kidney cells; experiment: Antiproliferative activity in non-tumour reference cell line; type: cell-based; details: for IC50: Vero E6 non-tumour reference cell line, SD in parentheses, n = 3; for Tumour selectivity: tumour cell lines in comparison to Vero E6: comparison of IC50 in tumour cell lines and non-tumour Vero E6
Description: as §7, §8, §9, §10, §11

[13] = Table 2, MRSA DSM 11822, 18 h, 37 °C
[14] = Table S12, ± standard error of the mean

Row | Structure (SMILES) | MIC, MRSA [1, 13] | MIC, MRSA [1, 14] [µM] | MIC, K.p. [2] | MIC, K. pneumoniae [2] [µM] | MIC, E.c. [3] | MIC, E. coli [3] [µM] | MIC, P.a. [4] [µM] | MIC, P. aeruginosa [4] [µM] | MIC, A.b. [5] | MIC, A. baumannii [5] [µM] | MIC, E.f. [6] | MIC, E. faecium [6] [µM] | TrxR activity, % of control [7] | IC50 [7] [nM] | IC50 [8] [µM] | IC50 [9] [µM] | IC50 [10] [µM] | IC50 [11] [µM] | IC50 [12] [µM] | Tumour selectivity: tumour cell lines in comparison to Vero E6 [12]
1 | COC(=O)c1cn(C)[c]([Au-][Cl])[n+]1C [2b] | 10 µM and 10 ± 0 µM | 10.35 ± 0 | 41 µM and 41 ± 0 µM | 41.39 ± 0 | 41 µM and 41 ± 0 µM | 41.39 ± 0 | >100 | > 100 | 10 µM and 10 ± 0 µM | 10.35 ± 0 | 10 µM and 10 ± 0 µM | 10.35 ± 0 | 8.9 % of control | 293 ± 163 | 22.7 | 23.8 | 12.8 | 19.8 |  | 
2 | CCOC(=O)c1cn(C)[c]([Au-][Cl])[n+]1C [2c] | 10 µM and 10 ± 0 µM | 9.98 ± 0 | 40 µM and 40 ± 0 µM | 39.94 ± 0 | 40 µM and 40 ± 0 µM | 39.94 ± 0 | >100 | > 100 | 10 µM and 10 ± 2 µM | 9.98 ± 2.07 | 10 µM and 10 ± 0 µM | 9.98 ± 0 | 13.8 % of control | 133 ± 44 | 10.4 | 9.93 | 8.9 | 22.1 | 13.1 | 
3 | Cn1cc(C(=O)O)[n+](C)[c]1[Au-][c]1n(C)cc(C(=O)O)[n+]1C.[Cl-] [3a] |  | > 100 |  | 62.4 ± 0 |  | 62.4 ± 0 |  | 62.4 ± 0 |  | 31.2 ± 4.90 |  | > 100 |  |  |  |  |  |  |  | 
4 | COC(=O)c1cn(C)[c]([Au-][c]2n(C)cc(C(=O)OC)[n+]2C)[n+]1C.O=S(=O)([O-])C(F)(F)F [3b] |  | > 100 |  | > 100 |  | > 100 |  | > 100 |  | > 100 |  | > 100 | 106 % of control |  | 5.21 | 34.4 | 19.2 | 27.7 | > 100 | clear preference for the tumour cell lines
5 | CCOC(=O)c1cn(C)[c]([Au-][c]2n(C)cc(C(=O)OCC)[n+]2C)[n+]1C.F[B-](F)(F)F [3c] |  | 25.79 ± 0 |  | > 100 |  | > 100 |  | > 100 |  | > 100 |  | > 100 | 115 % of control |  | 1.07 | 4.64 | 2.51 | 5.78 | 31.5 | clear preference for the tumour cell lines
6 | Cn1cc(C(=O)O)[n+](C)[c]1[Au-]([Cl])([Cl])[Cl] [4a] | >100 µM | > 100 | 36 ± 6 µM | 36.08 ± 5.67 | 72 ± 0 µM | 72.16 ± 0 | >100 | > 100 | 36 ± 3 µM | 36.08 ± 2.83 | >100 µM | > 100 | 86.1 % of control |  | 36.1 | 47.8 | 31.8 | > 90 | 42.4 | 
7 | COC(=O)c1cn(C)[c]([Au-]([Cl])([Cl])[Cl])[n+]1C [4b] | 17 µM and 17 ± 0 µM | 17.49 ± 0 | 35 µM and 35 ± 0 µM | 34.97 ± 0 | 35 µM and 35 ± 0 µM | 34.97 ± 0 | >100 | > 100 | 9 µM and 9 ± 2 µM | 8.74 ± 1.82 | 17 µM and 17 ± 0 µM | 17.49 ± 0 | 36.5 % of control | 362 ± 33 | 17.7 | 15.2 | 15.2 | 26.2 | 22.2 | 
8 | CCOC(=O)c1cn(C)[c]([Au-]([Cl])([Cl])[Cl])[n+]1C [4c] | 17 µM and 17 ± 2 µM | 16.97 ± 2.67 | 34 µM and 34 ± 5 µM | 33.93 ± 5.33 | 34 µM and 34 ± 0 µM | 33.93 ± 0 | >100 | > 100 | 8 µM and 8 ± 1 µM | 8.48 ± 1.33 | 17 µM and 17 ± 0 µM | 16.97 ± 0 | 28.5 % of control | 381 ± 53 | 17.9 | 14.6 | 11.1 | 28.4 | 20.7 | 
